Measured values: ChEMBL document CHEMBL1177713, “Discovery of 3-[2-(imidazo[1,2-b]pyridazin-3-yl)ethynyl]-4-methyl-N-{4-[(4-methylpiperazin-1-yl)methyl]-3-(trifluoromethyl)phenyl}benzamide (AP24534), a potent, orally active pan-inhibitor of breakpoint cluster region-abelson (BCR-ABL) kinase including the T315I gatekeeper mutant” (J Med Chem, 2010)
pIC50: −log10 of the molar value.

System: BaF3
Experiment: cells
Conditions: Mus musculus, BaF3, 72 h
Description: Antiproliferative activity against mouse BA/F3 cells expressing ABL T315I mutant after 3 days by MTS assay

Row | pIC50 | Compound
1 | 6.80 | Cc1ccc(C(=O)Nc2ccc(CN3CCCN(C)CC3)c(C(F)(F)F)c2)cc1C#Cc1cnc2ccccn12
2 | 6.26 | Cc1ccc(C(=O)Nc2cc(C(F)(F)F)ccn2)cc1C#Cn1cnc2c(NC3CC3)ncnc21
3 | 5.15 | Cc1ccc(C(=O)Nc2cc(C(F)(F)F)on2)cc1/C=C/n1cnc2c(NC3CC3)ncnc21
4 | 7.11 | Cc1ccc(C(=O)Nc2ccc(OC3CCN(C)CC3)c(C(F)(F)F)c2)cc1C#Cc1cnc2ccccn12
5 | 7.31 | CCN1CCN(Cc2ccc(NC(=O)c3ccc(C)c(C#Cc4cnc5ccccn45)c3)cc2C(F)(F)F)CC1
6 | 7.66 | Cc1ccc(C(=O)Nc2ccc(CN3CCNCC3)c(C(F)(F)F)c2)cc1C#Cc1cnc2ccccn12
7 | 6.69 | Cc1ccc(C(=O)Nc2ccc(CN3CCNC(C)C3)c(C(F)(F)F)c2)cc1C#Cc1cnc2ccccn12 (stereo not given)
8 | 6.87 | Cc1ccc(C(=O)Nc2cc(-n3cnc(CN4CCCC4)c3)cc(C(F)(F)F)c2)cc1C#Cc1cnc2ccccn12
9 | 7.37 | Cc1ccc(C(=O)Nc2ccc(CN3CCN(C(C)C)CC3)c(C(F)(F)F)c2)cc1C#Cc1cnc2ccccn12
10 | 7.38 | Cc1ccc(C(=O)Nc2ccc(CN3CCN(CCO)CC3)c(C(F)(F)F)c2)cc1C#Cc1cnc2ccccn12

System: not listed separately
Experiment: Half life in CD rat at 15 mg/kg, po by LC-MS/MS analysis
Type: ADME, organism-based
Parameters: dose 15 mg/kg, route oral
Conditions: in vivo

Row | half-life [h] | Compound
11 | 1.5 | Cc1ccc(C(=O)Nc2cc(C(F)(F)F)ccn2)cc1C#Cn1cnc2c(NC3CC3)ncnc21

System: BaF3
Experiment: cells
Conditions: Mus musculus, BaF3, 72 h
Remark: another data set of the same source
Description: Antiproliferative activity against mouse BA/F3 cells expressing wild type ABL after 3 days by MTS assay

Row | pIC50 | Compound
12 | 8.08 | Cc1ccc(C(=O)Nc2ccc(CN3CCCN(C)CC3)c(C(F)(F)F)c2)cc1C#Cc1cnc2ccccn12
13 | 8.70 | Cc1ccc(C(=O)Nc2cc(C(F)(F)F)ccn2)cc1C#Cn1cnc2c(NC3CC3)ncnc21
14 | 7.92 | Cc1ccc(C(=O)Nc2cc(C(F)(F)F)on2)cc1/C=C/n1cnc2c(NC3CC3)ncnc21
15 | 8.47 | Cc1ccc(C(=O)Nc2ccc(OC3CCN(C)CC3)c(C(F)(F)F)c2)cc1C#Cc1cnc2ccccn12
16 | 8.28 | CCN1CCN(Cc2ccc(NC(=O)c3ccc(C)c(C#Cc4cnc5ccccn45)c3)cc2C(F)(F)F)CC1
17 | 8.46 | Cc1ccc(C(=O)Nc2ccc(CN3CCNCC3)c(C(F)(F)F)c2)cc1C#Cc1cnc2ccccn12
18 | 8.02 | Cc1ccc(C(=O)Nc2ccc(CN3CCNC(C)C3)c(C(F)(F)F)c2)cc1C#Cc1cnc2ccccn12 (stereo not given)
19 | 8.03 | Cc1ccc(C(=O)Nc2cc(-n3cnc(CN4CCCC4)c3)cc(C(F)(F)F)c2)cc1C#Cc1cnc2ccccn12
20 | 8.10 | Cc1ccc(C(=O)Nc2ccc(CN3CCN(C(C)C)CC3)c(C(F)(F)F)c2)cc1C#Cc1cnc2ccccn12
21 | 8.64 | Cc1ccc(C(=O)Nc2ccc(CN3CCN(CCO)CC3)c(C(F)(F)F)c2)cc1C#Cc1cnc2ccccn12

System: Rattus norvegicus
Experiment: Dose normalized AUC (0 to 24 hrs) in CD rat at 15 mg/kg, po by LC-MS/MS analysis
Type: ADME, organism-based
Parameters: time < 24 hr, dose 15 mg/kg, route oral
Conditions: in vivo

Row | AUC [ng·h/mL/mg/kg] | Compound
22 | 11.8 | Cc1ccc(C(=O)Nc2cc(C(F)(F)F)ccn2)cc1C#Cn1cnc2c(NC3CC3)ncnc21

System: BaF3
Experiment: cells
Conditions: Mus musculus, BaF3, 72 h
Remark: another data set of the same source
Description: Antiproliferative activity against mouse BA/F3 cells after 3 days by MTS assay

Row | pIC50 | Compound
23 | 5.73 | Cc1ccc(C(=O)Nc2ccc(CN3CCCN(C)CC3)c(C(F)(F)F)c2)cc1C#Cc1cnc2ccccn12
24 | 6.00 | Cc1ccc(C(=O)Nc2ccc(OC3CCN(C)CC3)c(C(F)(F)F)c2)cc1C#Cc1cnc2ccccn12
25 | 5.71 | CCN1CCN(Cc2ccc(NC(=O)c3ccc(C)c(C#Cc4cnc5ccccn45)c3)cc2C(F)(F)F)CC1
26 | 5.68 | Cc1ccc(C(=O)Nc2ccc(CN3CCNCC3)c(C(F)(F)F)c2)cc1C#Cc1cnc2ccccn12
27 | 5.40 | Cc1ccc(C(=O)Nc2ccc(CN3CCNC(C)C3)c(C(F)(F)F)c2)cc1C#Cc1cnc2ccccn12 (stereo not given)
28 | 5.45 | Cc1ccc(C(=O)Nc2cc(-n3cnc(CN4CCCC4)c3)cc(C(F)(F)F)c2)cc1C#Cc1cnc2ccccn12
29 | 5.78 | Cc1ccc(C(=O)Nc2ccc(CN3CCN(C(C)C)CC3)c(C(F)(F)F)c2)cc1C#Cc1cnc2ccccn12
30 | 5.71 | Cc1ccc(C(=O)Nc2ccc(CN3CCN(CCO)CC3)c(C(F)(F)F)c2)cc1C#Cc1cnc2ccccn12
